The results in this text go back to ChEMBL document CHEMBL1201862, “PubChem BioAssay data set” (2004).

Structures are written as SMILES. The source made the active and inactive calls.

One assay deals with Cytochrome P450 3A4 (Homo sapiens, UniProt P08684). The note with it: Potency.
Assay [1] has as its target T1, Rac GTPase-activating protein 1 (Homo sapiens, UniProt Q9H0H5).
T1 sequence (Q9H0H5 whole entry): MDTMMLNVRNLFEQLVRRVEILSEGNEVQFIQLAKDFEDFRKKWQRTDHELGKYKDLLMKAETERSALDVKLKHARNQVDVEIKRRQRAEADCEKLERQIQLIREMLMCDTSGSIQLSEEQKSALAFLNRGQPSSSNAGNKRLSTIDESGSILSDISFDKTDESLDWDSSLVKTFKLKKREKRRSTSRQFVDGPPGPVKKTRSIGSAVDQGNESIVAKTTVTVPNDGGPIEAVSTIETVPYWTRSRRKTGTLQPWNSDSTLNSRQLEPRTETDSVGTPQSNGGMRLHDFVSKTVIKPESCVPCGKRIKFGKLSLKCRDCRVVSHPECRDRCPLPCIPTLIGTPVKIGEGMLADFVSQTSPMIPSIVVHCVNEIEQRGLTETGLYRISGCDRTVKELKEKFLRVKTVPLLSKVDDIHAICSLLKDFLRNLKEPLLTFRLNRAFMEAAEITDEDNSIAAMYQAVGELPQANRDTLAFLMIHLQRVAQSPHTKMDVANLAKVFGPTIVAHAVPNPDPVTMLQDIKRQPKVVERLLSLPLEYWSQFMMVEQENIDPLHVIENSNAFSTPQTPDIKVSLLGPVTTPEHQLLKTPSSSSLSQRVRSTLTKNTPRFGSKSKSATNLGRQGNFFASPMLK
The experiment in a line: MgcRacGAP GTPase-activating activity inhibitors, confirmation, biochemical, ADP Hunter fluorescence, primary and confirmatory (AID 624330). It counts as functional.

Assay [2] can be described thus: Luminescence Cell-Based Dose Retest to Confirm Inhibitors of Cancer Stem Cells. [Related pubchem assays (depositor defined):AID2717, AID2721]. In kind it is functional. The note with it: Homo sapiens.
Assay [3] deals with FAD-linked sulfhydryl oxidase ALR (Homo sapiens, UniProt P55789). The experiment in a line: inhibitors of human ALR sulfhydryl oxidase, dose response, biochemical, H2O2 detection, luminescence, cherry-pick (AID 493248).
Sequence of FAD-linked sulfhydryl oxidase ALR (P55789 whole entry): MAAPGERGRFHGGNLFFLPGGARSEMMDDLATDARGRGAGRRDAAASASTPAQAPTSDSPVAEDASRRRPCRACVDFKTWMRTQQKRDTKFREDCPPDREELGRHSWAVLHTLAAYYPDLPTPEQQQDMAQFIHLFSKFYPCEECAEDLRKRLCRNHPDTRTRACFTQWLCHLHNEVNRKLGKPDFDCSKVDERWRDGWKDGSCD
Another assay concerns INS1. Description: beta cell apoptosis inhibitors, cytokine rescue, dose response, luminescence, retest (AID 449756).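 Note: cell death triggered by IL-1 beta plus TNF-alpha plus IFN-gamma mixture; protective hits raise ATP signal compared with cytokine alone wells.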 In kind it is functional, cell-based. The note with it: Rattus norvegicus.
Assay [4] addresses T2, Short transient receptor potential channel 4 (Mus musculus, UniProt Q9QUQ5).
T2 sequence (Q9QUQ5 whole entry): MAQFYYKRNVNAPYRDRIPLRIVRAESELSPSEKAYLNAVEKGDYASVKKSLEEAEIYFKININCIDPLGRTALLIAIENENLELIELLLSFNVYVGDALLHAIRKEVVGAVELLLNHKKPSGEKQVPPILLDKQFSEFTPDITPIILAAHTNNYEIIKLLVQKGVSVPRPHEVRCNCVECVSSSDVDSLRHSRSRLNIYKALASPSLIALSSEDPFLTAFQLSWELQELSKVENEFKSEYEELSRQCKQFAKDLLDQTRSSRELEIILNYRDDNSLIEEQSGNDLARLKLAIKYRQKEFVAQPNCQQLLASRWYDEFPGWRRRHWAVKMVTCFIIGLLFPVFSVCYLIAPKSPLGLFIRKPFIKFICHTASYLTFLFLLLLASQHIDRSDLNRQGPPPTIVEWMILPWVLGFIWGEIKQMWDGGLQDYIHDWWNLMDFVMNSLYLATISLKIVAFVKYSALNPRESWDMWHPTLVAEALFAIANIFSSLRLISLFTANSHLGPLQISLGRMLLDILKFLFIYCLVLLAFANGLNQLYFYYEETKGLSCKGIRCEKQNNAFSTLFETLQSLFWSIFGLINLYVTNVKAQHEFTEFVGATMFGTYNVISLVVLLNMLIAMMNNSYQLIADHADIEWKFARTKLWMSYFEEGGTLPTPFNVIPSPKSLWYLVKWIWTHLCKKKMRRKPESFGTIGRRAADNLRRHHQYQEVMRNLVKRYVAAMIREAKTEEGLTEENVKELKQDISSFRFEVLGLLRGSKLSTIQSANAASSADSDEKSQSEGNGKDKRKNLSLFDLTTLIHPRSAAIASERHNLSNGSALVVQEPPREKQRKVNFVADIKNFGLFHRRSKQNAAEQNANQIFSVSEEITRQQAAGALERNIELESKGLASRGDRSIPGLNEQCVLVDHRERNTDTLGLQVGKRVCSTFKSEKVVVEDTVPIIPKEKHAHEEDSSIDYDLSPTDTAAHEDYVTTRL
The experiment in a line: mouse TRPC4 channel inhibitors, dose response, cell-based, HEK293 TRPC4/mu-opioid, Fluo-4 calcium (AID 434942).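 Note: potency of inhibitors blocking the TRPC4 calcium response.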 In kind it is functional.

For a further assay, the target named is T3, Aminopeptidase N (Plasmodium falciparum FcB1/Columbia, UniProt O96935).
T3 sequence (O96935 whole entry): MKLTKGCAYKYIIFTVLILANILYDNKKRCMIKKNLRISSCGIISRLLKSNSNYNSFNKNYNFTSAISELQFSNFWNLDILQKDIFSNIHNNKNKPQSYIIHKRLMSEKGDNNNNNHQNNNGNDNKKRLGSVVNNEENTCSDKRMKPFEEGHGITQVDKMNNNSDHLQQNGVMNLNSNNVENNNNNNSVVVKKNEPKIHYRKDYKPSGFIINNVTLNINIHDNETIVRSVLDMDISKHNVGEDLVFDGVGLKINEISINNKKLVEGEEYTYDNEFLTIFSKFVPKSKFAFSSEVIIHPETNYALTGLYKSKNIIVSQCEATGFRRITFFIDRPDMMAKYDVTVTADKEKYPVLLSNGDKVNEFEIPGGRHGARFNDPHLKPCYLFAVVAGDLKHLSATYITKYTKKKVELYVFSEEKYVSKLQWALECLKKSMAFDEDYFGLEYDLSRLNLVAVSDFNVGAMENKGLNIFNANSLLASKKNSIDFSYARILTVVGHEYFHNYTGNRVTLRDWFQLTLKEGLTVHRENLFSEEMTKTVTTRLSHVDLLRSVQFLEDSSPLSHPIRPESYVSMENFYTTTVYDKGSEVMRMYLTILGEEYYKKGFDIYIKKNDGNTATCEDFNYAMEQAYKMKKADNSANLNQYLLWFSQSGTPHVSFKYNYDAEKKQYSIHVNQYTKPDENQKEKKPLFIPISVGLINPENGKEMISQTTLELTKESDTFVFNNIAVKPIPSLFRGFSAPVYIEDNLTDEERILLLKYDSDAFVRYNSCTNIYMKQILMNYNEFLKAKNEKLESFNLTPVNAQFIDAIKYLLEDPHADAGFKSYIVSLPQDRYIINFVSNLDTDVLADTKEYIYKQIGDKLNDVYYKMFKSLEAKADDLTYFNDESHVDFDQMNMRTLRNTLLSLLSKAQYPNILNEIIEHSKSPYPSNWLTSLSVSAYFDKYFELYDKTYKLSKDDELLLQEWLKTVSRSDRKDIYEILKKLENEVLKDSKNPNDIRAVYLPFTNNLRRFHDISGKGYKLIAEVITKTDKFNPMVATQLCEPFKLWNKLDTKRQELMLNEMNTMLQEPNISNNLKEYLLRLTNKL
The experiment in a line: P. falciparum M1AAP inhibitors, biochemical, fluorogenic H-Leu-NHMec substrate, 1536-well (AID 1445). Set-up: species or system Plasmodium falciparum 3D7, 3D7.

For assay [5], the target named is 26S proteasome non-ATPase regulatory subunit 14 (Homo sapiens, UniProt O00487). The experiment in a line: inhibition of proteasome subunit RPN11 – biochemical, fluorescence polarization, uHTS hits, confirmation (AID 602368). In kind it is functional.
Sequence of 26S proteasome non-ATPase regulatory subunit 14 (O00487 whole entry): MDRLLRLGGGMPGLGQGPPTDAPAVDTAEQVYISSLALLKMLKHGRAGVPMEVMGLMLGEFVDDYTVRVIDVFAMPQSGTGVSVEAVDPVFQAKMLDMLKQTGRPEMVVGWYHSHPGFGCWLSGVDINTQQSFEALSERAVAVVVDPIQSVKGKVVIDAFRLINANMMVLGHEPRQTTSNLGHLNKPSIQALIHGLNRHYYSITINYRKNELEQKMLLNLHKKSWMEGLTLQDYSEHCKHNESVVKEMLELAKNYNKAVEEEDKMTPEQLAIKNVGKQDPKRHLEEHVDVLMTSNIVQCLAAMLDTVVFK
Another assay has as its target Prothrombin (Bos taurus, UniProt P00735). Description: thrombin inhibition, dose response, biochemical, fluorescence polarization, uHTS hits (AID 602369). In kind it is functional.
The target in a further assay is Nonstructural protein 1 (Influenza A virus, UniProt Q194T2). It counts as functional, Influenza A virus (A/California/07/2009(H1N1)).
Sequence of Nonstructural protein 1 (Q194T2 whole entry): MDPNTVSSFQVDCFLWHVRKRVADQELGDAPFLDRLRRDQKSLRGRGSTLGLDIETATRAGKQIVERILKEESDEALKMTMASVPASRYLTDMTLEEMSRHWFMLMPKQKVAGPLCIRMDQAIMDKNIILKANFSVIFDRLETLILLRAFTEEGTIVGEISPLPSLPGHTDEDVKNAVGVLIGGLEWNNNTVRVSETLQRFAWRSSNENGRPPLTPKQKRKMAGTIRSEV
Assay [6] concerns the target 72 kDa type IV collagenase (Homo sapiens, UniProt P08253). The experiment in a line: Dose Response validation of uHTS RPN11 inhibitor hits using a MMP-2 Fluorescence assay. It counts as functional.
A further assay concerns Vero. The experiment in a line: Vero E6 cell cytotoxicity, SAR follow-up, cytotoxicity control for West Nile virus antiviral project, synthesized analogs (AID 2244). It counts as functional. Conditions: Chlorocebus sabaeus.
The target of another assay is T4, Hexokinase HKDC1 (Homo sapiens, UniProt Q2TB90).
T4 sequence (Q2TB90 whole entry): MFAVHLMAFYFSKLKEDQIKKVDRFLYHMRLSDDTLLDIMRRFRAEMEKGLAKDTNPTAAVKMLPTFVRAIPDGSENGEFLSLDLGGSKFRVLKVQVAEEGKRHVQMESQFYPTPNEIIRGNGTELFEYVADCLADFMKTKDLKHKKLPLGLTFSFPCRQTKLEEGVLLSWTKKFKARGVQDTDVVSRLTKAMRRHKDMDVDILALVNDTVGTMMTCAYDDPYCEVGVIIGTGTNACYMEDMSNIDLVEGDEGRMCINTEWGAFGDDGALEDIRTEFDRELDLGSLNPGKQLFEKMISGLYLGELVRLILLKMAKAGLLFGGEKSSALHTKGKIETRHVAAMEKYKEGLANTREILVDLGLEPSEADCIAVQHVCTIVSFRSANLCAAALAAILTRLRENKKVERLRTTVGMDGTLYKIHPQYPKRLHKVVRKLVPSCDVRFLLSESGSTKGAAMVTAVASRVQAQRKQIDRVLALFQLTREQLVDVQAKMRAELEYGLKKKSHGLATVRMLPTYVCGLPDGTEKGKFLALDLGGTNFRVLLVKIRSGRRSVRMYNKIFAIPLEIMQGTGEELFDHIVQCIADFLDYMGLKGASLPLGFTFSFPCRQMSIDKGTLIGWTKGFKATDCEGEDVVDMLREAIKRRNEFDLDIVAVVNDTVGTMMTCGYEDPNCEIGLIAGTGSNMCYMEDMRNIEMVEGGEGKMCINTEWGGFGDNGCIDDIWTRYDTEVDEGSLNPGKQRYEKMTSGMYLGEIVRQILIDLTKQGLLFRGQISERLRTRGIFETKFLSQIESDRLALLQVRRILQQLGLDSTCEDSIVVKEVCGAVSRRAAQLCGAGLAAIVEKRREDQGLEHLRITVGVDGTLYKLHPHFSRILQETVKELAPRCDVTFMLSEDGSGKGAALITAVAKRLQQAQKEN
Description: HKDC1 hexokinase inhibitors, dose response, biochemical, W721R variant (AID 504729). In kind it is functional.

Another assay concerns the target T5, CAAX prenyl protease 2 (Homo sapiens, UniProt Q9Y256).
T5 sequence (Q9Y256 whole entry): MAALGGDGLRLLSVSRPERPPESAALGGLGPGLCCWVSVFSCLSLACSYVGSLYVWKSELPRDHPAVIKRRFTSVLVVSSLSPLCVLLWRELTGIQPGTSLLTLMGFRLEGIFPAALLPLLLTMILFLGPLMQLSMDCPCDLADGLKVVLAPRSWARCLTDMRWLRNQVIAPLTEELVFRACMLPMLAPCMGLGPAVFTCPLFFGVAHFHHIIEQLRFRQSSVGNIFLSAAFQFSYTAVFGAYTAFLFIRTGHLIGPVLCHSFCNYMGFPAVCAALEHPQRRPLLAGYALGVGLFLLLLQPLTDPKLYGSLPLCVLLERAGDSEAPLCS
The experiment in a line: human Rce1 protease inhibitors, dose response, biochemical, yeast membranes, quenched-peptide fluorescence, cherry-pick (AID 588849).

Another assay concerns the target Trypsin (Sus scrofa, UniProt P00761). Description: porcine trypsin inhibitors, dose response, selectivity assay for Rce1 protease inhibitor project, biochemical, quenched peptide fluorescence, cherry-pick (AID 488789).
In assay [7] the target is Glucose-6-phosphate 1-dehydrogenase (Homo sapiens, UniProt P11413). The experiment in a line: human G6PD enzyme inhibitors, dose response, selectivity assay for P. falciparum G6PD inhibitor project, biochemical, fluorescence (AID 504792). In kind it is functional.
Sequence of Glucose-6-phosphate 1-dehydrogenase (P11413 whole entry): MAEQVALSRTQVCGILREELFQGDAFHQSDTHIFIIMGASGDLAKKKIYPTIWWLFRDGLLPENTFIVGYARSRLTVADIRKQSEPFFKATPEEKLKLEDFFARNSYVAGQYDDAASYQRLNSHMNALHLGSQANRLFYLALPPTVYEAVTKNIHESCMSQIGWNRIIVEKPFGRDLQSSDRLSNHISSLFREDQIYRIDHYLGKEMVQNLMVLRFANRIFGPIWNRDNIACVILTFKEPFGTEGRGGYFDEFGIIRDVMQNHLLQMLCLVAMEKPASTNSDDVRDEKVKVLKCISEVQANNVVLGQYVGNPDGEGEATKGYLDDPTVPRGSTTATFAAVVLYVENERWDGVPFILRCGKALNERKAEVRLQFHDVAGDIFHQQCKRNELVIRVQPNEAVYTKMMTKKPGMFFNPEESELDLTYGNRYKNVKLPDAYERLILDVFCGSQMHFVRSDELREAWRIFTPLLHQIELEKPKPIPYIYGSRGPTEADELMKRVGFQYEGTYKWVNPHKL
A further assay has as its system HeLa. Description: HeLa cell cytotoxicity, dose response, cytotoxicity control, 24 h, cherry-picked samples (AID 504726).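 Note: potency for cytotoxicity as loss of luminescence signal.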 In kind it is functional, cell-based. Conditions: Homo sapiens.

Sequence of 72 kDa type IV collagenase (P08253 whole entry): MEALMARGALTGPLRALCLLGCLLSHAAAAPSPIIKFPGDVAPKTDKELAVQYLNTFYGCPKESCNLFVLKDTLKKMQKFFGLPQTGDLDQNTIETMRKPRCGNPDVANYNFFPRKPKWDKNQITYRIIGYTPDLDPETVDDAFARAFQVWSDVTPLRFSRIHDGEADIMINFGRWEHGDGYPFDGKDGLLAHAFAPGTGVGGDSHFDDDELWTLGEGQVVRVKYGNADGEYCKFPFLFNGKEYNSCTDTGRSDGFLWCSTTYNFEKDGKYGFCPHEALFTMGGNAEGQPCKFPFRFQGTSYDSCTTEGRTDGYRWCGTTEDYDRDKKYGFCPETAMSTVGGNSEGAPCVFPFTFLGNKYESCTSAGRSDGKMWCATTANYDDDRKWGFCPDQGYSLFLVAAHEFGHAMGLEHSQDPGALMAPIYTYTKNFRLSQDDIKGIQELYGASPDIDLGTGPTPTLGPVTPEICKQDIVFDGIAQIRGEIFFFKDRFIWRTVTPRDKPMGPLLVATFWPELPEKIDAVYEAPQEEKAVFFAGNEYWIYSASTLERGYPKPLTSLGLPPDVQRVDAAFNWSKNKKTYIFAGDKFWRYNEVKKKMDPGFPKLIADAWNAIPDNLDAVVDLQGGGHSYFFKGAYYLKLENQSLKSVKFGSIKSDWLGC
Sequence of Trypsin (P00761 whole entry): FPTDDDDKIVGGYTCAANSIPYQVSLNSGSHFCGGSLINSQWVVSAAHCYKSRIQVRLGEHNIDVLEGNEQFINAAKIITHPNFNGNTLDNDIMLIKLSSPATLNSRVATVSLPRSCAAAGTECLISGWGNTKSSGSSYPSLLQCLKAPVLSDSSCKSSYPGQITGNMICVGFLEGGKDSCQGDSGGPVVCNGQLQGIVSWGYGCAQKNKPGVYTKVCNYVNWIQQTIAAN
Sequence of Cytochrome P450 3A4 (P08684 whole entry): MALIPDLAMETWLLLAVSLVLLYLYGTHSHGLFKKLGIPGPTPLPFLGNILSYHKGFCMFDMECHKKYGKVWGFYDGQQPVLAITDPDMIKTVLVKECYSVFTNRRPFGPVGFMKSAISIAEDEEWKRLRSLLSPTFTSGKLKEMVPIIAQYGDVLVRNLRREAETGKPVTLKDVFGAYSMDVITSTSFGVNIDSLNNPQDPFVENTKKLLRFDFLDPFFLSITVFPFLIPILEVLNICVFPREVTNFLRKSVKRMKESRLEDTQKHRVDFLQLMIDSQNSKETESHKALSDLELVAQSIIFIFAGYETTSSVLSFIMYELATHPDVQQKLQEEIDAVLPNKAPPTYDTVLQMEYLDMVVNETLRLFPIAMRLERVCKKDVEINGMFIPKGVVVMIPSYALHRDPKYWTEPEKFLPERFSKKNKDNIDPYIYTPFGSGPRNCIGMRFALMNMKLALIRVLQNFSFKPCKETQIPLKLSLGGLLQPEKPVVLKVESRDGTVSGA

Consider `Cc1cc(-c2ccc(N)c(C)c2)ccc1N` [ORTHOTOLIDINE], for which the concentration at half-maximal activity (AC50) at Cytochrome P450 3A4 was 20 µM (inconclusive). Further, the IC50 in assay [1] was 12.2 µM (active).
`Cc1ccc(NNC(=O)c2ccno2)cc1Cl`: the AC50 was 2.34 µM (active) in [2], 0.223 µM (active) in [3] and 7.1 µM (active) with INS1.
As to `COc1ccc(-c2csc(NC(=O)Cc3cccc4ccccc34)c2C(=O)O)cc1`, the EC50 in [4] is 7.5 µM (active). Moreover, the half-inhibitory concentration (IC50) at Aminopeptidase N is 42.3 µM (active).
As for `Cc1cc(O)nc(NN/C=C2/C(=O)N(c3ccccc3)C(=O)c3ccccc32)n1`, the concentration for half-maximal inhibition (IC50) in [5] was 18.4 µM (active); at Prothrombin, 37.2 µM (active); on Nonstructural protein 1, 12 µM (active); in assay [6], > 100 µM (inactive); on Aminopeptidase N it was 47 µM (active).
With `COc1ccc(-c2csc(NC(=O)c3ccc(Cl)cc3)n2)cc1`, in the assay with Vero, the CC50 was > 40 µM (active).
Turning to `O=[N+]([O-])c1ccc(NN=Cc2ccc(O)cc2O)nc1`, on Hexokinase HKDC1, the IC50 was 6.23 µM (active).
Regarding `O=C(Nc1nc(-c2ccc(Cl)cc2)cs1)c1cccc(Cl)c1`, the CC50 in the assay with Vero was < 0.08 µM (active).
In the case of `CC(=O)Nc1cccc(NC(=O)C2CCCN2C(=O)Nc2cccc(F)c2)c1` (stereo not drawn), on Aminopeptidase N, the IC50 was 68.9 µM (active).
`Cc1ccc2nc(C)cc(N/N=C/c3cccc(O)c3)c2c1`: the AC50 in assay [3] was 1.02 µM (active).
As for `COc1cc(Cn2c(N)c(C(=O)NCc3ccco3)c3nc4ccccc4nc32)cc(OC)c1OC`, the AC50 on CAAX prenyl protease 2 was 3.86 µM (active); on Trypsin, 22.3 µM (active).
Regarding `COc1ccc(/C=N/Nc2ccccn2)cc1OC`, the AC50 in [3] is 0.771 µM (active).
As for `COc1cc(/C=C2\SC(c3ccc(C)cc3)=NC2=O)ccc1O`, the IC50 on Hexokinase HKDC1 was 38.3 µM (inactive); in assay [7], > 80 µM (inactive).
Regarding `COc1ccc(C2c3ccc(O)cc3Oc3ncn(CCCO)c(=N)c32)cc1OC` (stereo not drawn), the AC50 in the assay with HeLa is > 350 µM (inactive).
